According to PubChem BioAssay AID1845215 (Molecular Pharmacology Branch, DTP, NCI, 2023):

Tested on: SW 1271 complex tumor spheroid viability
Test: Anticancer human tumor SW 1271 cell line growth inhibition;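 further: spheroids exposed to agents for seven days before readout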;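 on viability, T/C: percent of DMSO vehicle control luminescence so 100% = vehicle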
Conditions: for IC50: curve of first compound; for viability, T/C: stronger effect = lower value
Summary of the method: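 Complex spheroids of malignant cells with endothelial cells and mesenchymal stem cells; agents alone or combined, from near clinical Cmax (or 10 microM if unknown) down in half-log steps, 0.25% DMSO final.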

[1] = second compound 30 pM, first compound 0.0316 µM
[2] = second compound 30 pM, first compound 0.1 µM
[3] = second compound 30 pM, first compound 0.316 µM
[4] = second compound 30 pM, first compound 1 µM
[5] = second compound 30 pM, first compound 3.16 µM
[6] = second compound 30 pM, first compound 10 µM
[7] = second compound 94.9 pM, first compound 0.0316 µM
[8] = second compound 94.9 pM, first compound 0.1 µM
[9] = second compound 94.9 pM, first compound 0.316 µM
[10] = second compound 94.9 pM, first compound 1 µM
[11] = second compound 94.9 pM, first compound 3.16 µM
[12] = second compound 94.9 pM, first compound 10 µM
[13] = second compound 0.0003 µM, first compound 0.0316 µM
[14] = second compound 0.0003 µM, first compound 0.1 µM
[15] = second compound 0.0003 µM, first compound 0.316 µM
[16] = second compound 0.0003 µM, first compound 1 µM
[17] = second compound 0.0003 µM, first compound 3.16 µM
[18] = second compound 0.0003 µM, first compound 10 µM
[19] = second compound 0.000949 µM, first compound 0.0316 µM
[20] = second compound 0.000949 µM, first compound 0.1 µM
[21] = second compound 0.000949 µM, first compound 0.316 µM
[22] = second compound 0.000949 µM, first compound 1 µM
[23] = second compound 0.000949 µM, first compound 3.16 µM
[24] = second compound 0.000949 µM, first compound 10 µM
[25] = second compound 0.003 µM, first compound 0.0316 µM
[26] = second compound 0.003 µM, first compound 0.1 µM
[27] = second compound 0.003 µM, first compound 0.316 µM
[28] = second compound 0.003 µM, first compound 1 µM
[29] = second compound 0.003 µM, first compound 3.16 µM
[30] = second compound 0.003 µM, first compound 10 µM

SMILES	IC50 (second compound 30 pM)	IC50 (second compound 94.9 pM)	IC50 (second compound 0.0003 µM)	IC50 (second compound 0.000949 µM)	IC50 (second compound 0.003 µM)	viability, T/C [1]	viability, T/C [2]	viability, T/C [3]	viability, T/C [4]	viability, T/C [5]	viability, T/C [6]	viability, T/C [7]	viability, T/C [8]	viability, T/C [9]	viability, T/C [10]	viability, T/C [11]	viability, T/C [12]	viability, T/C [13]	viability, T/C [14]	viability, T/C [15]	other results
CC(C)n1c(=O)n(C)c2cnc3cc(F)c(-c4ccc(OCCCN5CCCCC5)nc4)cc3c21 + COc1cc2c(cc1O)CCNC21CSC2c3c(OC(C)=O)c(C)c4c(c3C(COC1=O)N1C(O)C3Cc5cc(C)c(OC)c(O)c5C(C21)N3C)OCO4	931 nM	< 31.6 nM	< 31.6 nM	< 31.6 nM	< 31.6 nM	65%	57.5%	53.4%	45.6%	51.8%	29.3%	29.6%	28.7%	22.3%	24.2%	20.9%	15.8%	28.5%	33.3%	24.7%	viability, T/C [16]: 24.2%; viability, T/C [17]: 19.1%; viability, T/C [18]: 12.9%; viability, T/C [19]: 4.24%; viability, T/C [20]: 3.92%; viability, T/C [21]: 2.81%; viability, T/C [22]: 1.61%; viability, T/C [23]: 1.37%; viability, T/C [24]: 1.05%; viability, T/C [25]: 0.12%; viability, T/C [26]: 0.11%; viability, T/C [27]: 0.09%; viability, T/C [28]: 0.1%; viability, T/C [29]: 0.1%; viability, T/C [30]: 0.16%
COc1ccc([C@@H](O)c2cc(-c3ncnc4cc(N5CCOCC5)ccc34)c(F)cc2Cl)nn1 + COc1cc2c(cc1O)CCNC21CSC2c3c(OC(C)=O)c(C)c4c(c3C(COC1=O)N1C(O)C3Cc5cc(C)c(OC)c(O)c5C(C21)N3C)OCO4	1080 nM	168 nM	< 31.6 nM	< 31.6 nM	< 31.6 nM	84.9%	86.9%	77.4%	51.1%	21.7%	6.57%	71.1%	51.8%	39.6%	33.5%	25.9%	4.84%	35.7%	33.3%	31.1%	viability, T/C [16]: 17.6%; viability, T/C [17]: 1.97%; viability, T/C [18]: 0.12%; viability, T/C [19]: 2.95%; viability, T/C [20]: 2.6%; viability, T/C [21]: 1.24%; viability, T/C [22]: 0.04%; viability, T/C [23]: 0.02%; viability, T/C [24]: 0.1%; viability, T/C [25]: 0.1%; viability, T/C [26]: 0.08%; viability, T/C [27]: 0.08%; viability, T/C [28]: 0.08%; viability, T/C [29]: 0.09%; viability, T/C [30]: 0.15%
